Values joined by “and” are separate entries in the source; they are usually repeats but may differ in a detail not shown here. Equal entries are not always repeated.

A word on the Ki: it is the equilibrium dissociation constant of an inhibitor or competing ligand from its target. Higher therefore signals lower affinity.

This experiment addresses NK1 receptor (Homo sapiens, UniProt P25103). Description: NK1 receptor binding: inhibition of Substance P binding, Ki by the Chang-Prusoff equation. To be noted: inhibition constant from the concentration giving 50% inhibition of binding; procedure of Duffy et al. From the text:
The percent of MSB is defined by the following equation, wherein “dpm” represents “disintegrations per minute”: [formula]

Sequence of NK1 receptor (P25103 whole entry, species assumed): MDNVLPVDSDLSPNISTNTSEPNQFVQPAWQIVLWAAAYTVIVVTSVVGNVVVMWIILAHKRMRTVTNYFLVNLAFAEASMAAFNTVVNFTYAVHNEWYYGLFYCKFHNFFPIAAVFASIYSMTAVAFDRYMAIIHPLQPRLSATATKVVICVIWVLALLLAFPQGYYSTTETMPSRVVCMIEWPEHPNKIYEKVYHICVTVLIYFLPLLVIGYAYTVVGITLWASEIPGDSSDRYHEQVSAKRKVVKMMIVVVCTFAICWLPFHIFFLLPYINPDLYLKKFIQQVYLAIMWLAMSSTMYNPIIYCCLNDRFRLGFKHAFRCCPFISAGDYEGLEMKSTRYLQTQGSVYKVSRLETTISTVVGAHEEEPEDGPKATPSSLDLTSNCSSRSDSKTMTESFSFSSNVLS

Turning to `C[C@@H](OC[C@]1(c2ccccc2)C[C@]2(C1)N=CNC2=O)c1cc(C(F)(F)F)cc(C(F)(F)F)c1` [Example 46], the Ki lay within 0.13 to 1.78 nM.
Regarding `C[C@@H](OC[C@]1(c2ccccc2)C[C@]2(C1)NCNC2=O)c1cc(C(F)(F)F)cc(C(F)(F)F)c1` [Example 49], the Ki is 0.13 to 1.78 nM and 0.2 nM.
Then `C[C@@H](OC[C@]1(c2ccccc2)C[C@]2(C1)NC(=O)NC2=O)c1cc(C(F)(F)F)cc(C(F)(F)F)c1` [Example 11a], with 0.13 to 1.78 nM.
`CNC(=O)[C@]1(N)C[C@@](CO[C@H](C)c2cc(C(F)(F)F)cc(C(F)(F)F)c2)(c2ccccc2)C1` [Example 27] returned a Ki of 0.13 to 1.78 nM.
On to `C[C@@H](OC[C@]1(c2ccccc2)C[C@@]2(CNC(=O)N2)C1)c1cc(C(F)(F)F)cc(C(F)(F)F)c1` [Example 12b], for which the inhibition constant Ki fell in the range of 0.13 to 1.78 nM.
The value for `C[C@@H](OC[C@]1(c2ccccc2)C[C@](N)(C(N)=O)C1)c1cc(C(F)(F)F)cc(C(F)(F)F)c1` [Example 28] was 0.13 to 1.78 nM.
The value for `C[C@@H](OC[C@]1(c2ccccc2)C[C@@]2(C1)NC(=O)NC2=O)c1cc(C(F)(F)F)cc(C(F)(F)F)c1` [Example 11b] was 0.13 to 1.78 nM.

For the origin of these results see patent US6878732B2, “NK1 antagonists” (Schering Corporation, priority 2002, dated 2005).
